Assay results published in patent US11702400B2, “Salt types, crystal forms, and preparation methods for benzopyrazole compounds as RHO kinase inhibitors” (MEDSHINE DISCOVERY INC., priority 2019, dated 2023).

Experiments:
[1] = Solid stability test of the crystal form B of the compound of formula (II-2) (XRPD); type: physicochemical
Experimental: About 10 mg of the crystal form was accurately weighed and added to a dry and clean glass flask, spread into a thin layer, covered with aluminum foil, pierced small holes and placed under the influence factor test conditions and under accelerated conditions. Samples placed under illumination (visible light 1200000 Lux, UV 200 W) conditions were placed in clear glass flasks, fully exposed, and samples used for XRPD detection were placed separately.
After the samples were removed at the time point, the cover was covered, and the flask was sealed using sealing film, and stored in −20° C. refrigerator. When preparing the sample, the sample was removed from the refrigerator, restored to room temperature; 80% ACN (10 mL) was added, and the sample was dissolved by sonication for 2 min to obtain a solution with a concentration of about 1 mg/mL, then the liquid phase was used for injection analysis, and the detection results were compared with the initial detection results on day 0.
Preparation of standard solution on day 0: About 10 mg of the crystal form was weighed and added to a 10 mL volumetric flask, dissolved with 80% ACN and the volume was fixed to the scale.

[2] = Pharmacokinetic study of the racemate of the compound of formula (I) in SD rats; type: in vivo
Experimental: 2.1 Pharmacokinetic Study of the Racemate of the Compound of Formula (I) in SD Rats
Experimental purpose: To study the pharmacokinetics of the compounds in SD rats
Experimental material: SD rats (male, 7-10 weeks old, WTLH/SLAC)
Experimental procedure: The pharmacokinetic characteristics of the compounds were tested in rodents after intravenous (IV) and oral (PO) administration using standard protocols. The candidate compounds were prepared into 0.2 mg/mL clarified solutions and administrated to rats for single intravenous injection and oral administration. The solvent for both intravenous and oral administration was 5% DMSO/95% (10% hydroxypropyl β-cyclodextrin) aqueous solution. […] Whole blood samples were collected within 24 hours, centrifuged at 3000 g for 15 minutes, and the supernatant was separated to obtain plasma samples, and the proteins were precipitated by adding acetonitrile solution containing internal standard; the mixture was well mixed and centrifuged, and the supernatant was injected for quantitative analysis of plasma drug concentrations by LC-MS/MS analysis method, and pharmacokinetic parameters were calculated, such as peak concentration (Cmax), clearance rate (CL), half-life (T1/2), […] (Vdss), area under the drug-time curve (AUC0-last), bioavailability (F), etc.

ROCK1 = ROCK1 (Homo sapiens, UniProt Q13464); assay: In vitro evaluation of ROCK protein kinase inhibitory activity (33P-ATP filter-binding), ROCK1; type: biochemical; conditions: 1 nM kinase, 20 μM Long S6 Kinase substrate peptide, 2 hours room temperature
Sequence of ROCK1 (Q13464 whole entry): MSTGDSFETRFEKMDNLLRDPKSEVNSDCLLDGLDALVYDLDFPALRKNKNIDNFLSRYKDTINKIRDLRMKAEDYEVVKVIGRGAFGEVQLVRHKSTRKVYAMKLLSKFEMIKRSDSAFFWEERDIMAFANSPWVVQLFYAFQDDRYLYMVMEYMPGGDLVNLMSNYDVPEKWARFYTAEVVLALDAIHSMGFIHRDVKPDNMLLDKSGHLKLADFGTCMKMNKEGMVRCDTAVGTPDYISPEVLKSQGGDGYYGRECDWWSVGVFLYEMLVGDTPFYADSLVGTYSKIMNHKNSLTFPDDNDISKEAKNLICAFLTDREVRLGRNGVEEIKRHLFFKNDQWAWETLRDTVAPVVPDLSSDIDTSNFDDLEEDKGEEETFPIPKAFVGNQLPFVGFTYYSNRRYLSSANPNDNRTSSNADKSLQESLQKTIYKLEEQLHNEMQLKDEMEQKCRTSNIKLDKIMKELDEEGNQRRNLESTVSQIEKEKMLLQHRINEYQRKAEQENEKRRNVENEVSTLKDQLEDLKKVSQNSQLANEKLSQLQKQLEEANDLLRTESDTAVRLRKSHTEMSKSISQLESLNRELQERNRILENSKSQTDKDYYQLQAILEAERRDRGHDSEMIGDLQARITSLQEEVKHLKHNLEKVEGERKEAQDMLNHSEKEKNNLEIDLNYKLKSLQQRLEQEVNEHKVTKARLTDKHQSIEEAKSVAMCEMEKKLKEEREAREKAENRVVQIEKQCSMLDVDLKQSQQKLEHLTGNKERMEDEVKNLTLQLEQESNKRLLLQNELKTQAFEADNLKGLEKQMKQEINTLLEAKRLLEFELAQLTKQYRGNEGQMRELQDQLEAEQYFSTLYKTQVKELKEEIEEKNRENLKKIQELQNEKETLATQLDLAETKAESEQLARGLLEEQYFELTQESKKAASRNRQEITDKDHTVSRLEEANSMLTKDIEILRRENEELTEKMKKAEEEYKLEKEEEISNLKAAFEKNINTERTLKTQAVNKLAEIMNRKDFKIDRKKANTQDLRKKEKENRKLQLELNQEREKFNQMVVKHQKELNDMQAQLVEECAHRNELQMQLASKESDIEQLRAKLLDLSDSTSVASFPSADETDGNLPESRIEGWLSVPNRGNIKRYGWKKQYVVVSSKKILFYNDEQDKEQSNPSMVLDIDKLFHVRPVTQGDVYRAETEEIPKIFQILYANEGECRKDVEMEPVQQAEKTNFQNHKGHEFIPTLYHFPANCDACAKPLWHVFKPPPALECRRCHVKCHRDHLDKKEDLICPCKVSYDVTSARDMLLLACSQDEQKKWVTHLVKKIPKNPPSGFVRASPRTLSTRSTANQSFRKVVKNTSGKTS
Experimental: (§1) 1. In Vitro Evaluation of ROCK Protein Kinase Inhibitory Activity
(§2) Experimental purpose: To detect the IC50 value of ROCK protein kinase inhibition of compounds.
(§3) Experimental materials: assay buffer solution: 20 mM 4-hydroxyethyl piperazine ethanesulfonic acid (pH 7.5), 10 mM magnesium chloride, 1 mM ethylene glycol diethyl ether diaminetetraacetic acid, 0.02% polyoxyethylene lauryl ether, 0.02 mg/mL bovine serum albumin, 0.1 mM sodium vanadate, 2 mM dithiothreitol, 1% DMSO.
Experimental operation: ROCK protein kinase substrate Long S6 Kinase substrate peptide was added to a freshly prepared buffer solution at a concentration of 20 μM, then 1 nM ROCK protein kinase was added, and the mixture was stirred evenly. A series of DMSO diluents containing the compounds to be tested were added with Echo550 (started at […], diluted by 3 times series), preincubated at room temperature for 20 minutes, and ^33P-ATP (radiation intensity 10 μCi/μL) was added to initiate the reaction, and the reaction was carried out for 2 hours at room temperature. […] Radiation intensity was detected using the Filter-Binding method.
(§4) The protein kinase inhibitory activity of the compound was expressed as the residual protein kinase activity relative to the blank substrate (DMSO alone). IC50 values and curves were calculated using the Prism software package (GraphPad Software, San Diego Calif., USA).

ROCK2 = ROCK2 (Homo sapiens, UniProt O75116); assay: In vitro evaluation of ROCK protein kinase inhibitory activity (33P-ATP filter-binding), ROCK2; type: biochemical
Sequence of ROCK2 (O75116 whole entry): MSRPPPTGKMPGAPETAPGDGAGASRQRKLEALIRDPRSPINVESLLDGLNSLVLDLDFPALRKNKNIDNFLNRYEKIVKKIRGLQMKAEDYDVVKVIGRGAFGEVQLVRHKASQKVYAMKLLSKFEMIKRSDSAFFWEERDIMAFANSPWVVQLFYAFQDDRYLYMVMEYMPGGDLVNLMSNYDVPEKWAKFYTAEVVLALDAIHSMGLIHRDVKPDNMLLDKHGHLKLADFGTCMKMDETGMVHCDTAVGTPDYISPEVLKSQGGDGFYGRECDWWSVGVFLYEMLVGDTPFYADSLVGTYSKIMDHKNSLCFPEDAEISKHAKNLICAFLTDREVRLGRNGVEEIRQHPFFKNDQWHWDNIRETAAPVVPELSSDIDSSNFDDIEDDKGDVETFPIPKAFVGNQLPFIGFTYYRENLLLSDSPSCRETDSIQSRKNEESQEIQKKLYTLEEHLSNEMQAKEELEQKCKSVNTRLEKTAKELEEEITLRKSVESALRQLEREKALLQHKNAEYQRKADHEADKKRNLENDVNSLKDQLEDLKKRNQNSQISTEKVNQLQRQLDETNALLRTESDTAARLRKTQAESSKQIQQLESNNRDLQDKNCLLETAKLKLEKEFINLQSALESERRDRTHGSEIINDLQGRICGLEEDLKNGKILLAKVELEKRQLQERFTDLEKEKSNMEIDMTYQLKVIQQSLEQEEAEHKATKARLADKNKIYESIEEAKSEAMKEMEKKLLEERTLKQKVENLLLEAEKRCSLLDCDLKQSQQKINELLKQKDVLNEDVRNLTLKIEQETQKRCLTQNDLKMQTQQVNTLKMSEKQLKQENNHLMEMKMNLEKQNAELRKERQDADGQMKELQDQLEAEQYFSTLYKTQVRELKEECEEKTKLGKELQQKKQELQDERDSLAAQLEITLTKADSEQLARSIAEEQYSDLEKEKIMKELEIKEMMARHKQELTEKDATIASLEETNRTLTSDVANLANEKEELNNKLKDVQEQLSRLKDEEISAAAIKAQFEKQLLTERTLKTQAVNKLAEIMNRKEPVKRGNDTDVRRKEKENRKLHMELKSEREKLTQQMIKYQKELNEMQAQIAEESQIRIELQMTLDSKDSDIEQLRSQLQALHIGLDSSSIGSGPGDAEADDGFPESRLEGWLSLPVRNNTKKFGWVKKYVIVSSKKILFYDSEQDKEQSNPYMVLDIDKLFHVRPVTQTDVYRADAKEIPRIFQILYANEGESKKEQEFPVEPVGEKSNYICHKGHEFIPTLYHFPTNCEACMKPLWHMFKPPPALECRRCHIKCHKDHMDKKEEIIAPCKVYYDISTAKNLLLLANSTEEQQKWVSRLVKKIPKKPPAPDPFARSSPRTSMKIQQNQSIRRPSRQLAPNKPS
Experimental: as §1, §2, §3
Experimental operation: ROCK protein kinase substrate Long S6 Kinase substrate peptide was added to a freshly prepared buffer solution at a concentration of 20 μM, then 1 nM ROCK protein kinase was added, and the mixture was stirred evenly. A series of DMSO diluents containing the compounds to be tested were added with Echo550 (started at […], diluted by 3 times series), preincubated at room temperature for 20 minutes, and ^33P-ATP (radiation intensity 10 μCi/μL) was added to initiate the reaction, and the reaction was carried out for 2 hours at room temperature. The mixture was then filtered using P81 ion exchange paper (Whatman #3698-915) and washed with 0.75% phosphoric acid. Radiation intensity was detected using the Filter-Binding method.
as §4

In the case of `CC(=O)O.COc1cccc(C(CN)NC(=O)c2cc(-c3ccc4[nH]nc(C)c4c3)ccn2)c1` (centres unmarked), the Crystal form ([1]; 0 day) is reported as “Crystal form B”, the Crystal form ([1]; High humidity (relative humidity 75%, open), 5 days) is reported as “Crystal form B” and the Crystal form ([1]; High humidity (relative humidity 75%, open), 10 days) is reported as “Crystal form B”. The Crystal form ([1]; High humidity (relative humidity 92.5%, open), 5 days) was “Crystal form B”, the Crystal form ([1]; High humidity (relative humidity 92.5%, open), 10 days) was “Crystal form B” and the Crystal form ([1]; High temperature (60° C., open), 5 days) was “Crystal form B”. The Crystal form ([1]; High temperature (60° C., open), 10 days) was “Crystal form B”, the Crystal form ([1]; High temperature and humidity (40° C. relative humidity 75%, open), first entry, 5 days) was “Crystal form B” and the Crystal form ([1]; High temperature and humidity (40° C. relative humidity 75%, open), first entry, 10 days) was “Crystal form B”. The Crystal form ([1]; High temperature and humidity (40° C. relative humidity 75%, open), second entry, 5 days) was “Crystal form B”, the Crystal form ([1]; High temperature and humidity (40° C. relative humidity 75%, open), second entry, 10 days) was “Crystal form B” and the Crystal form ([1]; Illumination (total illuminance = 1.2 × 10^6 Lux·hr/near UV = 200 w·hr/m^2, open), 5 days) was “Crystal form B”. The Crystal form ([1]; Illumination (total illuminance = 1.2 × 10^6 Lux·hr/near UV = 200 w·hr/m^2, open), 10 days) was “Crystal form B” and the “solid stability (conclusion in words)” value ([1]; high temperature, high humidity and strong illumination conditions) was “good stability”.

For `COc1cccc(C(CN)NC(=O)c2cc(-c3ccc4[nH]nc(C)c4c3)ccn2)c1` (racemic) [Racemate of compound of formula (I)], the “pharmacokinetic properties (conclusion in words)” value [2] was “good pharmacokinetic properties” and the Vd ([2]; rat, plasma, male, IV 1 mg/kg, read-out: Tissue distribution Vdss) was 6 L/kg.

In the case of `COc1cccc([C@@H](CN)NC(=O)c2cc(-c3ccc4[nH]nc(C)c4c3)ccn2)c1` [Compound of formula (II)], the IC50 (ROCK1) is reported as 13 nM, the “inhibitory activity against ROCK2 (conclusion in words)” value (ROCK2) is reported as “good inhibitory activity” and the IC50 (ROCK2; 1 nM kinase, 20 μM Long S6 Kinase substrate peptide, 33P-ATP, 2 hours room temperature) is reported as 2 nM. The “selectivity for ROCK2 (conclusion in words)” value (ROCK2; ROCK2 versus ROCK1) was “some selectivity”.
